Experimental data taken from patent US4599336A, “Derivatives of (E)-3-(4-oxo-4H-quinazolin-3-yl)-2-propenamide” (Hoffmann-La Roche Inc., priority 1983, dated 1986).

Assays:
[1] = target: T1, PAF receptor (dog platelets) (Canis lupus familiaris, UniProt A0A8I3NSH0); experiment: PAF Radioreceptor Binding Assay; details: 3H-PAF
T1 construct: followed by 2×10^7 dog platelets; from tissue; host or cells: dog platelets, washed, intact
T1 sequence (A0A8I3NSH0 1-343): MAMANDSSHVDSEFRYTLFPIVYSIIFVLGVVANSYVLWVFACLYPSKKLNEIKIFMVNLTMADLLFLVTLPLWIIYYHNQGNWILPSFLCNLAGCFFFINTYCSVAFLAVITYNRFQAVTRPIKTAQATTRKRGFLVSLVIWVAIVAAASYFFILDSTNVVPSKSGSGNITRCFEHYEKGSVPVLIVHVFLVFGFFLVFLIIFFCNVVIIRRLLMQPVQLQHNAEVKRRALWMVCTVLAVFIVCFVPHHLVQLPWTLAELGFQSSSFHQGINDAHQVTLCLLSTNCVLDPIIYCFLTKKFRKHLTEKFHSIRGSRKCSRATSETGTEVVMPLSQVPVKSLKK
Description: Platelet rich plasma is prepared by centrifugation of citrate-treated dog blood. Acidification to pH 6.5 with 0.15M citric acid and centrifugation for 10 minutes at 1000 g yields a platelet pellet which is then washed by resuspension in EDTA-Phosphate Buffered Saline (PBS) and recentrifuged. The washed platelet preparation is adjusted to 2×10^7 platelets/50 μl in 0.1% BSA-PBS.
To a […] microfuge tube containing 50 μl silicone oil (specific gravity 1.023) is added buffer, PAF standard or analog, or an extract to bring the aqueous volume to 150 μl. 50 μl of ^3 H-PAF (10,000 cpm, 45 Ci/mM) is added followed by 2×10^7 dog platelets. After mixing, incubating for 10 minutes at room temperature, and centrifuging for 1 minute in a Beckman Microfuge B (8000 g), the pellet is removed by clipping off the tip of the tube, solubilizing the platelets with 200 μl of 50% methanol, and counting in 10 ml of Aquasol. […] Results obtained with representative compounds of the present invention in this assay are summarized hereinafter in Table I.

Δ^5 -Lipoxygenase = target: T2, Δ^5 -Lipoxygenase (Rattus norvegicus, UniProt P12527); experiment: Δ^5 -Lipoxygenase Inhibition; format: biochemical; details: RBL-1 cell supernatant; for inhibition at 10 µM: at 10^-5 M
T2 construct: using rat basophil leukemia cells (RBL-1 cells) as the enzyme source; endogenous in cells; host or cells: RBL-1 (rat basophil leukemia) cells, 49,300×g supernatant of homogenate
T2 sequence (P12527 1-673): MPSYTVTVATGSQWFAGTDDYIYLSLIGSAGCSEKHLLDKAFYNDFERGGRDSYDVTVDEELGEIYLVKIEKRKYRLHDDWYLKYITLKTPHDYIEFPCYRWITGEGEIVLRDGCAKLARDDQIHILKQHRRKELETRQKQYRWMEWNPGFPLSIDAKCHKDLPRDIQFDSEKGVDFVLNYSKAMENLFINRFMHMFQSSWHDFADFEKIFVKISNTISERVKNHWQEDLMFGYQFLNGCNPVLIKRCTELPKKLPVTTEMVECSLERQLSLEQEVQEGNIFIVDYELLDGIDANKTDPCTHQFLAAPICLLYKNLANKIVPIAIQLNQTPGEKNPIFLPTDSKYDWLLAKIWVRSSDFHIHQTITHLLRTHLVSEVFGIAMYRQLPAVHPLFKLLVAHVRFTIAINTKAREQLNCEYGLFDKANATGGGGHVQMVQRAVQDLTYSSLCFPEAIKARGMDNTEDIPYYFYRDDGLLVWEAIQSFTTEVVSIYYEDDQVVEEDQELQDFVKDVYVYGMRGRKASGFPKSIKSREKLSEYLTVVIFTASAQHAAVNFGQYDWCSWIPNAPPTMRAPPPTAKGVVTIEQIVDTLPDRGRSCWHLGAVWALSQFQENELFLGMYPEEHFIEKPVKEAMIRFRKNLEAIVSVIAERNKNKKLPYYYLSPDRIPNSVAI
Description: Δ^5 -Lipoxygenase inhibition was measured by following the conversion of ^14 C-arachidonic acid to ^14 C-5-HETE, using rat basophil leukemia cells (RBL-1 cells) as the enzyme source. These cells were maintained in stationary stock cultures and grown in spinner cultures prior to isolation by centrifugation at 4° C. at 1,500×g for 10 minutes. The cells were washed three times at 4° C. with 0.05M Tris HCl (ph 7.2) containing 1 mM EDTA, 14 μM indomethacin and 0.9% NaCl. They were then homogenized at 0°-4° C. using a glass/glass homogenizer in 0.05M Tris-HCl (pH 7.2) containing 1 mM EDTA and 14 μM indomethacin. The homogenate was then centrifuged at 49,300×g for 20 minutes (0°-4° C.) and the resulting supernatant frozen in small aliquots in a dry ice/acetone bath prior to storage at -80° C. Under these conditions, the enzyme was stable to freezing and thawing and to preincubation for 10 minutes at 30° C.
For enzyme assay, 100-200 μl of enzyme was incubated in the presence and absence of test compound (prepared in DMSO) for 10 minutes at 30° C. in 0.05M Tris-HCl buffer (pH 7.2) containing 1 mM glutathione, 2 mM CaCl2, 14 μM indomethacin and 0.25 and 0.5 mM EDTA (final volume 400 μl). The final DMSO concentration in these assays was 4%. The assay was initiated by the addition of 100 μl ^14 C-arachidonic acid (58 mCi/mmole) and incubations were carried out for 10 minutes at 37° C. in a shaking water bath. The reactions were stopped by the simultaneous addition of 4.0 ml of diethylether and 100 μl of 1.0 m citric acid, while the tubes were vigorously vortexed. The ^14 C-5-HETE generated by the enzyme was extracted into the acidified ether layer which was separated from the aqueous layer by freezing the assay tubes in a dry ice/acetone bath prior to decanting the liquid ether layer. The ether layer was evaporated to dryness under N2, the residue dissolved in 65 μl chloroform:methanol (2:1 v/v), prior to separating ^14 C-5-HETE from other ^14 C-labeled compounds on silica gel impregnated glass fiber TLC plates utilizing an elution solvent of isoctane:methylethylketone:acetic acid (100:9:1 v/v). ^14 C-5-HETE was identified by its co-chromatography with a chemically synthesized standard. The radioactive peaks of the chromatogram were cut out and the radioactivity was quantitated by liquid scintillation counting. The amount of 5-HETE obtained per sample was expressed as the percent of total and was calculated in the basis of: [formula] in order to evaluate the effect of the test compounds, the mean percent inhibition of ^14 C-5-HETE production was calculated. The IC50 for a drug was determined from a linear regression analysis of a plot of the mean percent inhibition vs drug concentration.

Row | Structure (SMILES) | IC50 [1] [nM] | inhibition at 10 µM (Δ^5 -Lipoxygenase) [%] | inhibition at 1 µM (Δ^5 -Lipoxygenase; at 10^-6 M) [%] | IC50 (Δ^5 -Lipoxygenase) [nM]
1 | CC(C)c1ccc2ncn(/C=C/C(=O)NCCCCc3cccnc3)c(=O)c2c1 [drawing 12] | 650 | 84 | 27 | 
2 | CC(C)c1ccc2ncn(/C=C/C(=O)NCCCCn3ccnc3)c(=O)c2c1 [drawing 15] | > 1000 | 0 |  | 
3 | CC(C)c1ccc2ncn(/C=C/C(=O)NCCCCc3ccccn3)c(=O)c2c1 [drawing 17] | > 1000 | 100 |  | 800
